Assay results from the supplement of paper PMC12137928.
Counter-ions that a name gives are not always drawn.

Test system: HCT116
Details: 72 h
How it was run: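 IC50 and maximal efficacy were derived from four-parameter Hill curve fits. The underlying CellTiter-Glo luminescence was scaled so that vehicle equals 0% and positive control equals -100%, and was then pattern-corrected. HCT116 cells had been seeded in 1536-well plates at 250 per well.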

Row | IC50 cell viability (ICRF193 0 nM) [µM] | IC50 cell viability (ICRF193 200 nM) [µM] | SMILES
1 | > 45.8 | > 45.8 | CCn1cc(C(=O)O)c(=O)c2cnc(N3CCNCC3)nc21 [Pipemidic acid]
2 | > 45.8 | > 45.8 | C[C@H](CCC(=O)O)[C@H]1CC[C@H]2[C@@H]3[C@@H](O)C[C@@H]4C[C@H](O)CC[C@]4(C)[C@H]3CC[C@]12C [Ursodiol]
3 | > 45.8 | > 45.8 | C[C@@H](c1ncncc1F)[C@](O)(Cn1cncn1)c1ccc(F)cc1F [Voriconazole]
4 | > 45.8 | > 45.8 | Oc1ccc(OCc2ccccc2)cc1 [Monobenzone]
5 | > 45.8 | > 45.8 | CCCc1nc(C)c2c(=O)nc(-c3cc(S(=O)(=O)N4CCN(CC)CC4)ccc3OCC)[nH]n12 [Vardenafil]
6 | > 45.8 | > 45.8 | OCCOCCOCCO [Triethylene glycol]
7 | > 45.8 | > 45.8 | Cc1cn([C@@H]2C[C@@H](O)[C@H](CO)O2)c(=O)[nH]c1=O [Telbivudine]
8 | > 45.8 | > 45.8 | O=C1CCC(=O)N1CO [N-Hydroxymethylsuccinimide]
9 | > 45.8 | > 45.8 | CN(C)CC/C=C1/c2ccccc2COc2ccc(CC(=O)O)cc21 [Olopatadine hydrochloride]
10 | > 45.8 | > 45.8 | CCCCC(C)(O)C/C=C/[C@H]1[C@H](O)CC(=O)[C@@H]1CCCCCCC(=O)OC (mixture of isomers) [Misoprostol]
11 | > 45.8 | > 45.8 | CC(=O)Oc1cc2c(s1)CCN(C(C(=O)C1CC1)c1ccccc1F)C2 (configuration not stated) [Prasugrel]
12 | > 45.8 | > 45.8 | NCCC(=O)[N-][C@@H](Cc1c[nH]cn1)C(=O)[O-].[Zn+2] [Polaprezinc]
13 | > 45.8 | > 45.8 | CCCN[C@H]1CCc2nc(N)sc2C1 [Pramipexole hydrochloride]
14 | > 45.8 | > 45.8 | CO[C@H]1/C=C/O[C@@]2(C)Oc3c(C)c(O)c4c(O)c(c(/C=N/N5CCN(C6CCCC6)CC5)c(O)c4c3C2=O)NC(=O)/C(C)=C\C=C\[C@H](C)[C@H](O)[C@@H](C)[C@@H](O)[C@@H](C)[C@H](OC(C)=O)[C@@H]1C [Rifapentine]
15 | > 45.8 | > 45.8 | N#Cc1cc(-c2n[nH]c(-c3ccncc3)n2)ccn1 [Topiroxostat]
16 | > 45.8 | > 45.8 | CCCCCCCCCCCCCCCCOP(=O)([O-])OCC[N+](C)(C)C [Miltefosine]
17 | > 45.8 | > 45.8 | CC1(C)NC(=O)N(c2ccc([N+](=O)[O-])c(C(F)(F)F)c2)C1=O [Nilutamide]
18 | > 45.8 | > 45.8 | O=c1[nH]c(=O)n(C2CCCO2)cc1F (configuration not stated) [Tegafur]
19 | > 45.8 | > 45.8 | CCCCOc1ccc(OCCCN2CCOCC2)cc1 [Pramoxine hydrochloride]
20 | > 45.8 | > 45.8 | Cc1cc(O)c2c(c1)O[C@@]1(C)CC[C@H]3C(C)(C)CCC[C@]34CO[C@@H]2[C@H]41 [Siccanin]
21 | > 45.8 | > 45.8 | COc1cc2/c(=N/c3ccc(Br)cc3F)nc[nH]c2cc1OCC1CCN(C)CC1 [Vandetanib]
22 | > 45.8 | > 45.8 | CC[N+]1(CC)CCC(=C(c2ccccc2)c2ccccc2)C1C (configuration not stated) [Prifinium bromide]
23 | > 45.8 | > 45.8 | S=P(N1CC1)(N1CC1)N1CC1 [ThioTEPA]

The next lines start with the compound.

Row | SMILES | IC50 cell viability (ICRF193 0 nM) [µM] | IC50 cell viability (ICRF193 200 nM) [µM]
24 | CC1(C)[C@@H](O)CC[C@]2(C)[C@H]3C(=O)C=C4[C@@H]5C[C@@](C)(C(=O)O)CC[C@]5(C)CC[C@@]4(C)[C@]3(C)CC[C@@H]12 [ENOXOLONE] | > 45.8 | > 45.8
25 | O=C(Nc1ccc(O)cc1)c1ccccc1O [2-Hydroxy-N-(4-hydroxyphenyl)-benzamide] | > 45.8 | > 45.8
26 | C[C@H]1CN(C[C@H](Cc2ccccc2)C(=O)NCC(=O)O)CC[C@@]1(C)c1cccc(O)c1 [Alvimopan] | > 45.8 | > 45.8
27 | COc1nc2ccc(Br)cc2cc1[C@@H](c1ccccc1)[C@@](O)(CCN(C)C)c1cccc2ccccc12 [Bedaquiline (TMC-207)] | > 45.8 | > 45.8
28 | CCCCCc1ccc(C)cc1O [Amylmetacresol] | > 45.8 | > 45.8
29 | CCCCCCCCCC(=O)OC1(c2ccc(Cl)cc2)CCN(CCCC(=O)c2ccc(F)cc2)CC1 [HALOPERIDOL DECANOATE] | > 45.8 | > 45.8
30 | CCOC(=O)/C=C(C)/C=C/C=C(C)/C=C/c1c(C)cc(OC)c(C)c1C [Etretinate] | > 45.8 | > 45.8
31 | CC(C)CCC[C@@H](C)[C@H]1CC[C@H]2[C@@H]3CC[C@H]4C[C@@H](O)CC[C@]4(C)[C@H]3CC[C@]12C [5alpha-Cholestan-3beta-ol] | > 45.8 | > 45.8
32 | NCC1(CC(=O)O)CCCCC1 [Gabapentin] | > 45.8 | > 45.8
33 | CSc1ccc(C(=O)c2[nH]c(=O)[nH]c2C)cc1 [Enoximone] | > 45.8 | > 45.8
34 | CC(=O)OCC(=O)[C@@]12N=C(C)O[C@@H]1C[C@H]1[C@@H]3CCC4=CC(=O)C=C[C@]4(C)[C@H]3[C@@H](O)C[C@@]12C [Deflazacort] | > 45.8 | > 45.8
35 | CC(=O)O[C@]1(C(C)=O)CC[C@H]2[C@@H]3C=C(C)C4=CC(=O)CC[C@]4(C)[C@H]3CC[C@@]21C [Megestrol acetate] | > 45.8 | > 45.8
36 | O=C(COCCOCCOCC(=O)Nc1c(I)cc(I)c(C(=O)O)c1I)Nc1c(I)cc(I)c(C(=O)O)c1I [Biliscopin] | > 45.8 | > 45.8
37 | CN1[C@H]2CC[C@@H]1[C@@H](C(=O)O)[C@@H](OC(=O)c1ccccc1)C2 [Benzoylecgonine] | > 45.8 | > 45.8
38 | O=C1CC[C@H](C(=O)N2CCCCC2)N1 [Fasoracetam] | > 45.8 | > 45.8
39 | C[C@]12CCC(=O)C=C1CC[C@H]1[C@@H]3CC[C@](O)(C(=O)CO)[C@@]3(C)C[C@H](O)[C@@]12F [Fludrocortisone] | > 45.8 | > 45.8
40 | Cc1ncc([N+](=O)[O-])n1CCO [Metronidazole] | > 45.8 | > 45.8
41 | C[N+]1(C)[C@@H]2C[C@@H](OC(=O)[C@H](CO)c3ccccc3)C[C@H]1[C@@H]1O[C@@H]12 [Scopolamine methylbromide] | > 45.8 | > 45.8
42 | CCC(CN)=C(c1ccccc1)c1ccccc1 [Etifelmine hydrochloride] | > 45.8 | > 45.8

Row | SMILES | IC50 cell viability (ICRF193 0 nM) [µM] | IC50 cell viability (ICRF193 200 nM) [µM]
43 | O=C(CCCN1CCC2(CC1)C(=O)NCN2c1ccccc1)c1ccc(F)cc1 [Spiperone] | > 45.8 | > 45.8
44 | OCCc1ccccc1 [2-Phenylethanol] | > 45.8 | > 45.8
45 | CN(CC1(C)CCCO1)S(=O)(=O)c1ccc(Cl)c(S(N)(=O)=O)c1 (configuration not stated) [Mefruside] | > 45.8 | > 45.8
46 | CN(C)CCN1C(=O)c2ccccc2N(C)c2ccccc21 [Dibenzepin hydrochloride] | > 45.8 | > 45.8
47 | Cc1nnc(SCC2=C(C(=O)O)N3C(=O)[C@@H](NC(=O)Cn4cnnn4)[C@H]3SC2)s1 [Cefazolin] | > 45.8 | > 45.8
48 | CC(=O)[C@@]1(O)CC[C@H]2[C@@H]3C[C@H](C)C4=CC(=O)C=C[C@]4(C)[C@@]3(F)[C@@H](O)C[C@@]21C [Fluorometholone] | > 45.8 | > 45.8
49 | CC(C)NC(C)Cc1ccc(I)cc1 (configuration not stated) [Iofetamine hydrochloride] | > 45.8 | > 45.8
50 | O=C(/C=C/c1ccccc1)OCc1ccccc1 [Benzyl cinnamate] | > 45.8 | > 45.8
51 | CCN(CCCCOC(=O)c1ccc(OC)c(OC)c1)C(C)Cc1ccc(OC)cc1 (configuration not stated) [Mebeverine hydrochloride] | > 45.8 | > 45.8
52 | COCCc1ccc(OCC(O)CNC(C)C)cc1 (configuration not stated) [Metoprolol tartrate] | > 45.8 | > 45.8
53 | CC[N+](C)(C)c1cccc(O)c1 [Edrophonium chloride] | > 45.8 | > 45.8
54 | Cc1c(N(C)C)c(=O)n(-c2ccccc2)n1C [4-Dimethylaminoantipyrine] | > 45.8 | > 45.8
55 | CC(C)C[C@H]1C(=O)O[C@H](Cc2ccc(N3CCOCC3)cc2)C(=O)N(C)[C@@H](CC(C)C)C(=O)O[C@H](C)C(=O)N(C)[C@@H](CC(C)C)C(=O)O[C@H](Cc2ccc(N3CCOCC3)cc2)C(=O)N(C)[C@@H](CC(C)C)C(=O)O[C@H](C)C(=O)N1C [Emodepside] | > 45.8 | > 45.8
56 | CCN(CC)CCCN(c1ccccc1)C1Cc2ccccc2C1 [Aprindine hydrochloride] | > 45.8 | > 45.8
57 | CC[C@@H](CO)NC(=O)[C@@H]1C=C2c3cccc4[nH]cc(c34)C[C@H]2N(C)C1 [Methergine] | > 45.8 | > 45.8
58 | CO/N=C(\C(=O)N[C@@H]1C(=O)N2C(C(=O)[O-])=C(C[n+]3ccn4ncccc43)CS[C@H]12)c1nsc(N)n1 [Cefozopran hydrochloride] | > 45.8 | > 45.8
59 | CCN(C)C(C)C(O)c1ccccc1 (configuration not stated) [Etafedrine hydrochloride] | > 45.8 | > 45.8
60 | NS(=O)(=O)c1cc2c(cc1Cl)NC(C1CC3C=CC1C3)NS2(=O)=O (configuration not stated) [Cyclothiazide] | > 45.8 | > 45.8
61 | CCCCCCCCCCCCCCCCCCOCC(O)CO (configuration not stated) [3-(Octadecyloxy)-1,2-propanediol] | > 45.8 | > 45.8
